# Entries after “also recorded” stand apart in the source; their conditions may differ.
# Key:
# [1] = tested on: CD133+ PPT2 cells; assay type: cell-based, human
# Method: (§1) The CSC-specific cytotoxic effects were studied in two different settings both of which are known to maintain/promote sternness phenotype: adherent to type I collagen cultures and 3D cultures of floating spheroids (Baretton, G. B. 1994; Miyoshi, Y. 2000; Koivisto, P. 1995). The CD133^high/CD44^high cells (1×10^3 cells/well) isolated either from PPT2 or PC3MM2 cell lines were seeded onto the type I collagen-coated 96-well plates, cultured in the MSCGM for 2 days, and the treatment was initiated upon 90% confluency. Paclitaxel, SBT-1214 and CMC2.24 were dissolved in sterile DMSO and then serially diluted in MSCGM. For testing the SBT-1214/CMC2.24 combination efficacy, the regular MSCGM was replaced with treatment medium containing SBT-1214 or Ptx at selected concentration range (from 10 nM to 10 μM) with 30 μM CMC2.24. Treatment medium was removed 24, 48 or 72 hr later, followed by return to the MSCGM. Cell death was analyzed on adherent type I collagen cell cultures with the MTT assay [MTT=3-(4,5-dimethylthiazol-2-yl)-2,5-diphenyltetrazolium bromide] as recommended by manufacturer (Invitrogen). Spheroids were cultured and treated on ULA plates.
# (§2) The dose-response cytotoxicity of SBT-1214, CMC2.24/and their combination was evaluated by standard MTT assay (all of the in vitro experiments were repeated at least three times and each measurement for the MMT assay was performed in 4 repeats). The dose-response points were plotted as a percentage of the untreated control, the absorbance of which was considered as 100%. Data were expressed as means±SD for each drug concentration. The in vivo responses to drug treatment were evaluated as changes in tumor volume of drug-treated versus untreated control xenografts induced by particular type of cells. Data were expressed as means±SD for control and drug treated tumors. The statistical significance of differences was determined using Student's t-test. The parameters used were the two-tailed distribution and the paired test. P<0.05 was considered statistically significant.
# [2] = tested on: CD133+ PC3MM2 cells; experiment: MTT cytotoxicity assay, CD133+ PC3MM2 cells on type I collagen; assay type: cell-based, human; conditions: 72 hours, 10 nM-10 μM, stated as up to
# Method: as §1, with “For testing the SBT-1214/CMC2.24 combination efficacy, the regular MSCGM was replaced with treatment medium containing SBT-1214 or Ptx at selected concentration range (from 10 nM to 10 μM) with 30 μM CMC2.24. Treatment medium was removed 24, 48 or 72 hr later, followed by return to the MSCGM.” left out, “Spheroids were cultured and treated on ULA plates.” left out
# as §2, with “The in vivo responses to drug treatment were evaluated as changes in tumor volume of drug-treated versus untreated control xenografts induced by particular type of cells.” left out, “The parameters used were the two-tailed distribution and the paired test. P<0.05 was considered statistically significant.” left out
# [3] = tested on: Oct-4, Sox-2, Nanog, Lin-28 and c-Myc; experiment: Stem cell-specific PCR array on 3D spheroids induced by CD133high/CD44high cells; assay type: cell-based; conditions: single treatment with 0.01 μg/ml
# Method: Stem cell-specific gene expression profiles were studied with the PCR Array assay (SABiosciences, CA) in accordance with the manufacturer's recommendations. Briefly, total RNA was isolated from different cell populations (cancer stem cells expressing high levels of the CD133 and CD44, or whole floating spheroids that are enriched with CSCs) using PARIS kit (Ambion). Up to 1 μg of total RNA was treated with DNase and cDNA was prepared using RT^2 First Strand kit. For each analysis, pairs of the test and control cDNA samples were mixed with RT^2 qPCR Master mix and distributed across the PCR array 96-well plates, each of which contained 84 stem cell-related probes and control housekeeping genes. After cycling with real-time PCR (Opticon MJ Research or ABI 7300, Applied Biosystems), obtained amplification data (fold-changes in Ct values of all the genes) was analyzed with SABiosciences software.
# Since CSC-enriched CD 133^+ and CD44^+ cell populations are more resistant to conventional therapies than other more differentiated cells, the cytotoxic effects of SBT-1214 were tested against such cell populations in colon (Botchkina et al., 2010) and prostate (FIG. 5) cancers. […]
# [4] = tested on: PPT2- and PC3MM2-induced tumors; experiment: Tumor xenografts induced by CD133+ cells, tumor size; assay type: in vivo, NOD/SCID mice
# Method: All experiments involving the use of animals were carried out in strict accordance with the recommendations in the Guide for the Care and Use of Laboratory Animals of the National Institutes of Health, via a research protocol that was approved by Stony Brook University Institutional Animal Care and Use Committee (IACUC). NOD/SCID mice (Charles River Laboratories International, Inc., MA) were maintained under defined conditions at SBU animal facility. After sufficient propagation, CD133^+ cells were resuspended in 1:1 MSCGM/Matrigel and injected to the flanks of 6 weeks old NOD/SCID mice (3,000 cells per mice; subcutaneously). Tumor development was monitored starting from the second week. The primary tumor sizes were measured with a caliper on a weekly basis and approximate tumor weights determined using the formula 0.5ab^2, where b is the smaller of the two perpendicular diameters. All mice were terminated after fourth week of treatment, if the tumor measured ˜2 cm, or at the first sign of suffering.
# Animals were handled according to protocols that have been approved by the Institutional Animal Care and Use committee of the Stony Brook University. […] Systemic toxicity in NOD/SCID mice was closely monitored and evaluated by standard criteria (motor activity, morbidity, appetite, posture and appearance). […] Cells were counted and plated on 48-well plates at a final count of 300 cells per well. […]
# [5] = tested on: drug-resistant colon tumor xenografts; conditions: all surviving mice; cited from earlier work
# [6] = tested on: prostate CD133+ cells (PPT2 and PC3MM2); experiment: MTT cytotoxicity assay, results stated for prostate CD133+ cells without split by line; assay type: cell-based, human
# Method: as §1, §2
# [7] = tested on: PC3MM2-induced tumors; experiment: Residual tumors after treatment, viable cells and ex vivo colonies, PC3MM2; assay type: in vivo, NOD/SCID mice; conditions: 40, 20, 20, 20 mg/kg weekly, one week after last treatment
# Method: (§3) Animals were handled according to protocols that have been approved by the Institutional Animal Care and Use committee of the Stony Brook University. The staff of veterinarians provided veterinary care. The SBT-1214 was administered intravenously (40, 20, 20, 20 mg/kg; weekly) to 6-weeks old NOD/SCID mice. Treatment was started 2-3 weeks after transplantation of the tumor cells, when tumor xenografts reached ˜100 mm^3. Systemic toxicity in NOD/SCID mice was closely monitored and evaluated by standard criteria (motor activity, morbidity, appetite, posture and appearance). One week after the last treatment, all residual tumors were harvested and analyzed histopathologically and for ex vivo clonogenic capacity. One part of each mouse tumor xenograft was snap-frozen in embedding matrix (Lipshaw) and kept at −80° C. before immunohistochemical analysis at standard conditions. […] Ability to induce the round colonies (holoclones) was also determined before and after drug treatment. Cells were counted and plated on 48-well plates at a final count of 300 cells per well. One week after initiation, the plates were inspected for colony growth and the number of colonies within each well was quantified by phase contrast microscopy. After drug treatment, one portion of cells which survived particular treatment regimen was placed at 3D and adherent culture conditions and analyzed. […]
# [8] = tested on: PPT2 and PC3MM2 cell lines; experiment: FACS analysis of CD133 expression after drug treatment; assay type: cell-based, human; conditions: 10 nM to 10 μM, 24 hours, concentration-dependent
# From the text: To ensure more reliable isolation of CSCs, cells were labeled with one or several markers conjugated with different fluorescent dyes, including anti-human CD133/2-APC (clone 293C3; Miltenyi Biotec, CA, USA); CD166-PE (clone 105902; R&D Systems, MN, USA); CD44-FITC (clone F10-44-2), CD44-PE (clone F10-44-2; Invitrogen/Biosources, USA); CD44v6-FITC (clone 2F10; R&D Systems, USA), EpCAM-FITC (Biosource, CA, USA), Pan-Keratin (C11)-Alexa Fluor® 488 (Cell Signaling) and all the isotype controls (Chemicon). Antibodies were diluted in buffer containing 5% BSA, 1 mM EDTA and 15-20% blocking reagent (Miltenyi Biotec) to inhibit unspecific binding to non-target cells. After 15 min incubation at 4° C., stained cells were sorted and analyzed with multiparametric flow cytometer BD FACSAria (Becton Dickinson, CA). Alternatively, dissociated cells were centrifuged at 950 g for 5 min at 4° C., rinsed with sterile MACS buffer (Miltenyi Biotec, CA) and labeled with CD133 Abs directly or indirectly conjugated with ferromagnetic beads (Miltenyi Biotec, CA) as recommended by manufacturer.
# as §1, with “For testing the SBT-1214/CMC2.24 combination efficacy, the regular MSCGM was replaced with treatment medium containing SBT-1214 or Ptx at selected concentration range (from 10 nM to 10 μM) with 30 μM CMC2.24. Treatment medium was removed 24, 48 or 72 hr later, followed by return to the MSCGM.” left out, “Spheroids were cultured and treated on ULA plates.” left out
# [9] = Systemic toxicity in tumor-bearing mice; assay type: in vivo, NOD/SCID mice
# Method: as §3
# [10] = tested on: p53 and p21; experiment: Western blot of pro-apoptotic proteins; assay type: cell-based, human; conditions: CD133+ and bulk PPT2 cells, previously not expressed
# Method: (§4) Cells were lysed using Active Motif Nuclear Co-ip kit according to manufacturer's protocol. 20 μg of enriched nuclear and cytoplasmic extracts was subjected to electrophoresis in 10% polyacrylamide gel. The proteins were then transferred to a nitrocellulose membrane and developed with appropriate antibodies.
# [11] = tested on: PPT2 and PC3MM2 floating spheroids; experiment: Sphere formation assay after drug treatment; assay type: cell-based, human; conditions: 1 μM, 24 hours
# Method: In order to obtain prostate cancer spheroids, MACS-CD133 and MACS-CD44 (Miltenyi Biotec, CA) or FACS sorted CD133^high/CD44^high cells were seeded at low numbers on ULA plates (1,000 cells per 6-well plate or 5-10,000 cells per 75 mm flasks) in MSCGM or SPCM. For evaluation of the clonogenic/sphere-forming capacity, cells were counted with Cellometer Auto T4 (Nexcelom Bioscience LLC, MA), resuspended in 1:4 type I collagen/SPCM or 1:4 Matrigel/MSGM and known cell numbers were plated on ULA plates. One week after initiation plates were inspected for floating sphere growth and compact well-shaped spheroids were counted. Spheroids were serially passaged by gentle dissociation and mixing with a new Matrigel/MSGM or type I collagen/SPCM, or reseeded on 48-well plates for final count of 5-10 spheres per well for further propagation and analysis.
# [12] = tested on: PPT2-induced tumors; experiment: Residual tumors after treatment, viable cells and ex vivo colonies, PPT2; assay type: in vivo, NOD/SCID mice; conditions: 40, 20, 20, 20 mg/kg weekly, one week after last treatment
# Method: as §3
# [13] = tested on: c-Myc, Sox-2 and Oct4; experiment: Western blot of key transcription factors; assay type: cell-based, human; conditions: nuclear extracts of CD133+ and bulk PPT2 cells
# Method: as §4
SMILES,"cytotoxicity at lower concentrations compared to 10 μM ([1]; 100 nM-1 μM versus 10 μM, 48-72 hours)","cell death ([1]; 72 hours, 10 nM-10 μM, stated as up to)",cell death [2],expression of key regulators of pluripotency [3],"tumor size ([4]; 40, 20, 20, 20 mg/kg weekly i.v.)","tumor size ([4]; 40, 40, 40 mg/kg weekly i.v., by the third treatment)",tumor regression [5],"CD133+ cells killed ([6]; 48-72 hours, 10 nM to 10 μM, stated as up to)",residual tumors without viable cells and without colonies in culture [7],ratios of cells with highest expression of CD133 [8],"systemic toxicity ([9]; 40, 20, 20, 20 mg/kg weekly)","systemic toxicity ([9]; 40, 40, 40 mg/kg weekly)",expression of p21 and p53 [10],ability to induce secondary 3D spheroids or collagen-adherent colonies [11],residual tumors without viable cells and without colonies in culture [12],c-Myc and Sox2 expression [13],concentration dependence of effect on prostate CD133+ cells ([6]; single agent)
CC(=O)O[C@@]12CO[C@@H]1C[C@H](O)[C@@]1(C)C(=O)[C@H](OC(=O)C3CC3)C3=C(C)[C@@H](OC(=O)[C@H](O)[C@H](C=C(C)C)NC(=O)OC(C)(C)C)C[C@@](O)([C@@H](OC(=O)c4ccccc4)[C@H]21)C3(C)C [SBT-1214],higher cytotoxicity,up to 65%,up to 60%,significantly inhibited,more significant tumor regression; also recorded: dramatic reduction in tumor size,dramatically shrunk,complete regression,up to 60%,three of six,increased the ratios,much lower systemic toxicity,all mice expressed common signs of systemic toxicity,induced expression,lost their ability to induce both secondary 3D spheroids,Four of six,moderate down-regulation,
"COc1cc(/C=C/C(=O)CC(=O)/C=C/c2ccc(O)c(OC)c2)ccc1O [curcumin, diferuloylmethane]",,,,,,,,,,,,,,,,,biphasic effects

# Reference: patent US9675576B2, “Polyenolic zinc-binding agents (pezbins) actively promote inactivation of cancer stem cells and potentiate cytotoxic anti-tumor drug substances” (The Research Foundation for The State University of New York, priority 2012, dated 2017)
